Data reported in patent US4923862A, “Topical preparation containing ofloxacin” (priority 1986, dated 1990).
Read-outs that look alike come from different tables or passages of the source.

Tests used:
[1] = Antimicrobial activity of Ofloxacin and S-compound (general statement); settings: compared with Ofloxacin
[2] = U.S. Pat. No. 4,382,892; Antimicrobial Agent & Chemotherapy, Vol. 29, 163-164 (1986); cited from earlier work
[3] = Stability of S-compound in aqueous solution; type: physicochemical; settings: 0.5% (wt./vol.) aqueous solution, pH 3 to 10, 2 weeks
mice = test: Acute toxicity in mice; settings: p.o.

| Compound | antimicrobial activities [1] | antimicrobial activities [2] | decomposition (residual amount of S-compound) [3] | LD50 (acute toxicity) (mice) |
| --- | --- | --- | --- | --- |
| C[C@H]1COc2c(N3CCN(C)CC3)c(F)cc3c(=O)c(C(=O)O)cn1c23 [S-compound, S-(-)-9-fluoro-3-methyl-10-(4-methyl-1-piperazinyl)-7-oxo-2,3-dihydro-7H-pyrido[1,2,3de][1,4]benzoxazine-6-carboxylic acid] | high antimicrobial activities | potential antimicrobial activities | no decomposition was observed at all | – |
| CC1COc2c(N3CCN(C)CC3)c(F)cc3c(=O)c(C(=O)O)cn1c23 (racemic) [Ofloxacin, (±)-9-fluoro-3-methyl-10-(4-methyl-1-piperazinyl)-7-oxo-2,3-dihydro-7H-pyrido[1,2,3de][1,4]benzoxazine-6-carboxylic acid] | – | excellent antimicrobial agent | – | 5450 mg/kg |
